US20250304549A1, “HYDROXYAMIDE DERIVATIVE AND USE THEREOF” (SICHUAN HUIYU PHARMACEUTICAL CO., LTD., priority 2022, published 2025)
Counter-ions that a name gives are not always drawn.

Legend:
NCI-H1417 cells = assay: In vitro cell inhibition assay - H1417 cell proliferation (CellTiter-Glo); assay type: cell-based; conditions: Homo sapiens, NCI-H1417, H1417 small cell lung cancer cell proliferation
Summary of the method: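 Cells exposed to 8 compound concentrations (5-fold dilutions) in BEGM with 10% FBS for 7 days at 37° C., 5% CO2. Viable cells measured by CellTiter-Glo luminescence; inhibition versus no-inhibitor and no-cell controls, IC50 fitted.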

HDAC8 = HDAC8 (Homo sapiens (Human), UniProt Q9BY41); assay: In vitro enzyme inhibition assay - HDAC (HDAC-Glo I/II), HDAC8; assay type: biochemical; conditions: read-out: HDAC IC50 (nM) HDAC 8
Summary of the method: (§1)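 Inhibition was measured with the HDAC-Glo I/II luminescent assay, testing compound as an 8-point, 5-fold dilution series from a 1 mM DMSO stock. Luminescence (RLU) was normalized to no-inhibitor and no-enzyme controls, and IC50 was derived by four-parameter variable-slope fitting.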

NCI-H69 cells = assay: In vitro cell inhibition assay - NCI-H69 cell proliferation (CellTiter-Glo); assay type: cell-based; conditions: Homo sapiens, NCI-H69, H69 small cell lung cancer cell proliferation
Summary of the method: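 CellTiter-Glo luminescence measured viability after a 7-day, 37° C. exposure of NCI-H69 cells (1×10^3/well) to an 8-point, 5-fold dilution series in RPMI-640/20% FBS. Inhibition was normalised to untreated and cell-free wells and IC50 derived by curve fitting.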

LSD1 = LSD1 (Homo sapiens (Human), UniProt O60341); assay: In vitro enzyme inhibition assay - LSD1 (HTRF); assay type: biochemical
NCI-H526 cells = assay: In vitro cell inhibition assay - NCI-H526 cell proliferation (CellTiter-Glo); assay type: cell-based; conditions: Homo sapiens, NCI-H526, 120 h, H526 small cell lung cancer cell proliferation, 5 days
Procedure: 6. In Vitro Cell Inhibition Assay—NCI-H526 Cell Proliferation
The inhibitory effect of the compounds on cell proliferation was assessed by detecting the number of viable cells using CellTiter-Glo® reagent. NCI-H526 cells in the logarithmic growth phase were collected and inoculated into transparent bottom 96-well plates at a density 1×10^3 cells per well with 100 μL of medium, and incubated at 37° C., 5% CO2 overnight. The compounds were sequentially diluted in a 5-fold concentration gradient with DMSO to obtain 8 different concentrations. These were then diluted with RPMI-640 (containing 10% FBS) cell culture medium to obtain the compound working solution (2×), which was added to the cell supernatant at 100 μL per well. The incubation continued for 5 days at 37° C., 5% CO2. The plate was then removed and equilibrated at room temperature (25° C.) along with the CellTiter-Glo® mixing reagent for 10-30 minutes; 80 μL of the culture medium was carefully aspirated from each well, and 80 μL of CellTiter-Glo® reagent was added. The cells were thoroughly mixed with the CellTiter-Glo® mixing reagent using a microplate shaker for 2 min. and then incubated at room temperature for 10 min. The 96-well plate was subsequently placed on a multifunctional microplate reader to record the Luminescence values (RLU).
The inhibition rate was calculated using the following formula: […]
Note: ‘Negative’ refers to the group without inhibitors; ‘Blank’ refers to the group without cells.
The IC50 value was determined by fitting the inhibition rate by GraphPad Prism software.

pan-HDAC = assay: In vitro enzyme inhibition assay - HDAC (HDAC-Glo I/II), pan-HDAC; assay type: biochemical
Summary of the method: as §1

Chain of HDAC8 (Q9BY41 whole entry): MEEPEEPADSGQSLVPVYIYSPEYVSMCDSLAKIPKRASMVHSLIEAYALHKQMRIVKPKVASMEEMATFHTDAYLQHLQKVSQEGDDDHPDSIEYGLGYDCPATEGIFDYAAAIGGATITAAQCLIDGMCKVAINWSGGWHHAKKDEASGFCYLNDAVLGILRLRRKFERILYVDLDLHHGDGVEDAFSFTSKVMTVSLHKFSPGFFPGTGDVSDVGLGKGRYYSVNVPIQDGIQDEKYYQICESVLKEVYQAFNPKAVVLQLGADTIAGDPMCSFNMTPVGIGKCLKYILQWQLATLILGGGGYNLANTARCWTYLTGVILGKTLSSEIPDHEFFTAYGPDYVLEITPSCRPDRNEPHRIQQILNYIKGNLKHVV

SMILES	IC50 (NCI-H1417 cells) [nM]	IC50 (HDAC8) [nM]	IC50 (NCI-H69 cells) [nM]	IC50 (LSD1) [nM]	IC50 (NCI-H526 cells) [nM]	IC50 (pan-HDAC) [nM]
COc1ccc(-c2cnc(N3CCC(NCc4ccc(/C=C/C(=O)NO)cc4F)CC3)c(C#N)c2-c2ccc(C#N)c(F)c2)cc1O [Example 154, (E)-3-(4-(((1-(3-Cyano-4-(4-cyano-3-fluorophenyl)-5-(3-hydroxy-4-methoxyphenyl)pyridin-2-yl)piperidin-4-yl)amino)methyl)-3-fluorophenyl)-N-hydroxyacrylamide hydrochloride]	1.41	309	16.5	0.44	21.7	4.3
COc1ccc(-c2cnc(N3CCC(NCc4ccc(/C=C/C(=O)NO)cc4Cl)CC3)c(C#N)c2-c2ccc(C#N)c(F)c2)cc1O [Example 156, (E)-3-(3-Chloro-4-((1-(3-cyano-4-(4-cyano-3-fluorophenyl)-5-(3-hydroxy-4-methoxyphenyl)pyridin-2-yl)piperidin-4-yl)amino)methyl) phenyl)-N-hydroxyacrylamide formate]	6.64	731	58.1	2.53	80.4	8.88
N#Cc1ccc(-c2c(-c3ccc(Cl)c(O)c3)cnc(N3CCC(NCc4cnc(/C=C/C(=O)NO)nc4)CC3)c2C#N)cc1F [Example 159, (E)-3-(5-(((1-(5-(4-Chloro-3-hydroxyphenyl)-3-cyano-4-(4-cyano-3-fluorophenyl)pyridin-2-yl)piperidin-4-yl)amino)methyl)pyrimidin-2-yl)-N-hydroxyacrylamide hydrochloride]	3.5	83.5	17.9	1.82	16.1	2.71
COc1ccc(-c2cnc(N3CCC(NCc4ccc(/C=C/C(=O)NO)c(C#N)c4)CC3)c(C#N)c2-c2ccc(C#N)c(F)c2)cc1O [Example 162, (E)-3-(2-Cyano-4-((1-(3-cyano-4-(4-cyano-3-fluorophenyl)-5-(3-hydroxy-4-methoxyphenyl)pyridin-2-yl)piperidin-4-yl)amino)methyl) phenyl)-N-hydroxyacrylamide formate]	2.98	209	21.7	0.4	18.5	3.34
COc1ccc(-c2cnc(N3CCC(NCc4ccc(/C(C)=C/C(=O)NO)cc4)CC3)c(C#N)c2-c2ccc(C#N)c(F)c2)cc1O [Example 170, (E)-3-(4-(((1-(3-Cyano-4-(4-cyano-3-fluorophenyl)-5-(3-hydroxy-4-methoxyphenyl)pyridin-2-yl)piperidin-4-yl)amino)methyl)phenyl)-N-hydroxybut-2-enamide formate]	1.28	62.7	27.6	0.43	27.5	2
COc1ccc(-c2cnc(N3CCC(NCc4ccc(/C=C/C(=O)NO)cc4)CC3)c(C#N)c2-c2cnc(C#N)c(F)c2)cc1O [Example 249, (E)-3-(4-(((1-(3′,6-Dicyano-5-fluoro-5′-(3-hydroxy-4-methoxyphenyl)-[3,4′-bipyridin]-2′-yl)piperidin-4-yl)amino)methyl)phenyl)-N-hydroxyacrylamide formate]	1.26		2.74	1.1	11.7	0.86
COc1cc(F)c(-c2cnc(N3CCC(NCc4ccc(/C=C/C(=O)NO)cc4)CC3)c(C#N)c2-c2ccc(C#N)nc2)cc1O [Example 255, (E)-3-(4-(((1-(3′,6-Dicyano-5′-(2-fluoro-5-hydroxy-4-methoxyphenyl)-[3,4′-bipyridin]-2′-yl)piperidin-4-yl)amino)methyl)phenyl)-N-hydroxyacrylamide formate]	3.39		7.82	1.54	11	0.68
COc1ccc(-c2cnc(N3CCC(NCc4ccc(/C=C/C(=O)NO)c(F)c4)CC3)c(C#N)c2-c2ccc(C#N)nc2)cc1O [Example 258, (E)-3-(4-(((1-(3′,6-Dicyano-5′-(3-hydroxy-4-methoxyphenyl)-[3,4′-bipyridin]-2′-yl)piperidin-4-yl)amino)methyl)-2-fluorophenyl)-N-hydroxyacrylamide formate]	1.05		1.81	1.41	2.09	0.3
COc1ccc(-c2cnc(N3CCC(NCc4ccc(/C=C(\F)C(=O)NO)cc4)CC3)c(C#N)c2-c2ccc(C#N)nc2)cc1O [Example 260, (Z)-3-(4-(((1-(3′,6-Dicyano-5′-(3-hydroxy-4-methoxyphenyl)-[3,4′-bipyridin]-2′-yl)piperidin-4-yl)amino)methyl)phenyl)-2-fluoro-N-hydroxyacrylamide dformate]	3.02		8.18	2.37	11.5	0.77

The next lines start with the values.

IC50 (NCI-H1417 cells) [nM]	IC50 (HDAC8) [nM]	IC50 (NCI-H69 cells) [nM]	IC50 (LSD1) [nM]	IC50 (NCI-H526 cells) [nM]	IC50 (pan-HDAC) [nM]	SMILES
1.64		1.14	16.8	2.22	0.34	COc1ccc(-c2cnc(N3CCC(NCc4ccc(/C=C/C(=O)NO)cc4)CC3)c(OC)c2-c2ccc(C#N)nc2)cc1O [Example 263, (E)-3-(4-(((1-(6-Cyano-5′-(3-hydroxy-4-methoxyphenyl)-3′-methoxy-[3,4′-bipyridin]-2′-yl)piperidin-4-yl)amino)methyl)phenyl)-N-hydroxyacrylamide formate]
2.2		1.84	25.4	5.12	0.89	COc1ccc(-c2cnc(N3CCC(NCc4ccc(/C=C/C(=O)NO)cc4F)CC3)c(OC)c2-c2ccc(C#N)nc2)cc1O [Example 264, (E)-3-(4-(((1-(6-Cyano-5′-(3-hydroxy-4-methoxyphenyl)-3′-methoxy-[3,4′-bipyridin]-2′-yl)piperidin-4-yl)amino)methyl)-3-fluorophenyl)-N-hydroxyacrylamide formate]
5.09		7.2	10.2	5.85	0.45	COc1cc(F)c(-c2cnc(N3CCC(NCc4ccc(/C=C/C(=O)NO)cc4)CC3)c(OC)c2-c2ccc(C#N)nc2)cc1O [Example 265, (E)-3-(4-(((1-(6-Cyano-5′-(2-fluoro-5-hydroxy-4-methoxyphenyl)-3′-methoxy-[3,4′-bipyridin]-2′-yl)piperidin-4-yl)amino)methyl)phenyl)-N-hydroxyacrylamide formate]
2.09		2.02	24.2	2.35	0.16	COc1ccc(-c2cnc(N3CCC(NCc4ccc(/C=C/C(=O)NO)nc4)CC3)c(OC)c2-c2ccc(C#N)nc2)cc1O [Example 266, (E)-3-(5-(((1-(6-Cyano-5′-(3-hydroxy-4-methoxyphenyl)-3′-methoxy-[3,4′-bipyridin]-2′-yl)piperidin-4-yl)amino)methyl)pyridin-2-yl)-N-hydroxyacrylamide formate]
2.03		1.58	147	2.22	0.27	COc1ccc(-c2cnc(N3CCC(NCc4ccc(/C=C/C(=O)NO)cc4)CC3)c(F)c2-c2ccc(C#N)nc2)cc1O [Example 268, (E)-3-(4-(((1-(6-Cyano-3′-fluoro-5′-(3-hydroxy-4-methoxyphenyl)-[3,4′-bipyridin]-2′-yl)piperidin-4-yl)amino)methyl)phenyl)-N-hydroxyacrylamide formate]
